≈ marks a conversion by molar mass, not a printed value.
How the values were obtained:
TBK1(h) = target: T1, TBK1(h) (Homo sapiens, UniProt Q9UHD2); assay: kinase panel; type: biochemical
T1 sequence (Q9UHD2 1-729): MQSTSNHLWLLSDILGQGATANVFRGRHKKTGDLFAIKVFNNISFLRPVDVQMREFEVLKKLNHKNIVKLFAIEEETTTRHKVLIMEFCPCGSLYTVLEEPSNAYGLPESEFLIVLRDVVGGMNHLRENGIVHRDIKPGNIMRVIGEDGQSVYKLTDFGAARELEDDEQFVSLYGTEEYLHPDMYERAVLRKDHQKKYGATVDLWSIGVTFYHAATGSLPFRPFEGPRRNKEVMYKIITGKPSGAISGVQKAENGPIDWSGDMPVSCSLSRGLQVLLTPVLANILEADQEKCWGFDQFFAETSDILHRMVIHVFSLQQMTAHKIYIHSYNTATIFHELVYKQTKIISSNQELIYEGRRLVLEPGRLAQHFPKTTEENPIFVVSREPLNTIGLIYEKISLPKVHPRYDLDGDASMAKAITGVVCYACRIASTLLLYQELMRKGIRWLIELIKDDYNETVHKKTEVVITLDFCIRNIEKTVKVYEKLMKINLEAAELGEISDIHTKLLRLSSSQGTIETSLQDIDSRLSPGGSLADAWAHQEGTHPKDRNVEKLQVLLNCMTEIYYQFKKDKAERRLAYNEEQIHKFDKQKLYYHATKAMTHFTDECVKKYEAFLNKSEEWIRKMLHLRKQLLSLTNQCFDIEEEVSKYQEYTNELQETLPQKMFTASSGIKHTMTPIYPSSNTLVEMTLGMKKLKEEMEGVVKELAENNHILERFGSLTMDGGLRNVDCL
Method in brief: (§1)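 Three compounds in the series were profiled against a panel of 231 kinases, and activity is reported as % inhibition. For one compound, a subset of 98 kinases was selected on the basis of its structural similarity to another series member.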

Lyn(h) = Lyn(h) (Homo sapiens, UniProt P07948); assay: kinase panel; type: biochemical
Method in brief: as §1

EphB2(h) = EphB2(h) (Homo sapiens, UniProt P29323); assay: kinase panel; type: biochemical
Method in brief: as §1

JNK2α2(h) = JNK2α2(h) (Homo sapiens, UniProt P45984); assay: kinase panel; type: biochemical
Method in brief: as §1

TAO3(h) = TAO3(h) (Homo sapiens, UniProt Q9H2K8); assay: kinase panel; type: biochemical
Method in brief: as §1

MLCK(h) = assay: kinase panel; type: biochemical, human; details: 1 μM
Text: (§2) We profiled three compounds from the series across the kinome (Table S1).
(§3) Ta b l e S1. The % inhibition of compounds 4, 5r [SU1261], and 6g [SU1349] against a
(§4) panel of kinase enzymes. We proϐiled three compounds from the series across 231
(§5) kinases. For SU1349, given its structural similarity with SU1261, we selected 98 from the
(§6) Tested kinase % inhibiƟon

panel of 231 kinases = assay: Kinome profiling, summary; type: biochemical, human; details: 1 μM
Text: as §2, §3, §4, §5, §6

[1] = system: p105 (Ser932) phosphorylation in PC-3M cells; assay: TNFα-stimulated p105 (Ser932) phosphorylation, Western blotting; type: cell-based; details: 0.1–10 µM
Protocol: (§7) U2OS cells were cultured in McCoy’s 5A Modified Medium, and PC-3M-Luc-C6 prostate cancer cells were cultured in Minimum Essential Medium (MEM), each containing 10% (v/v) Foetal Calf Serum (FCS), L-glutamine ([…]), and penicillin/streptomycin (250 units/mL; 100 μg/mL) and incubated in a humidified atmosphere at 37 °C with 5% (v/v) CO2. Cells were grown to near confluence and prior to experimentation rendered quiescent by serum deprivation for 24 h.
(§8) To examine the potential impact of compounds on canonical NF-κB signalling, cells were then exposed to vehicle (DMSO; 0.05% (v/v)) or increasing concentrations of compounds (0.01–30 µM) for 1 h prior to treatment with TNF⍺ (20 ng/mL) for 30 min. Whole-cell extracts were prepared, and the status of IκB⍺, phospho-p65 (Ser536), p65, and phospho-p105 ([…]) was also assessed by Western blotting.
(§9) Each figure/panel of Western blotting data represents one of at least three separate experiments. Western blots were scanned and imaged using Adobe Photoshop 5.0.2 software and polypeptide bands were semi-quantified by scanning densitometry using the Scion Image program. Data were normalised to fold expression/inhibition relative to ‘agonist plus vehicle’ treatment and expressed as mean ± s.e.m. IC50 values were established by curve fitting using the Hill equation. […]

[2] = system: p65 (Ser536) phosphorylation in PC-3M cells; assay: TNFα-stimulated p65 (Ser536) phosphorylation, Western blotting; type: cell-based; details: 0.1–10 µM
Protocol: as §7, §8, §9

Turbidimetric solubility = type: physicochemical; details: pH 7.4, aqueous buffer, kinetic from dmso stock, 0.01 M phosphate-buffered saline pH7.4
Protocol: Pharmacokinetic studies were contracted to Sygnature Discovery Limited. Turbidimetric Solubility was determined by diluting compound solutions (1 μM, 3 μM, 10 μM, 30 μM, 100 μM) prepared in DMSO into 0.01 M phosphate-buffered saline pH7.4. Turbidimetry was used as the endpoint by measuring absorbance at 620 nm.

[3] = Mouse hepatocyte intrinsic clearance and half-life; type: in vitro ADME; details: mouse CD1 hepatocytes; for half-life at 1 µM: cryopreserved pooled hepatocytes; for Mouse Hepatocyte Clearance: 1 µM
Protocol: Intrinsic clearance and half-life were determined using cryopreserved pooled mouse CD1 hepatocytes. Test compounds were analysed at 1 µM in Williams Media E buffer (0.01% DMSO) at a cell density of 0.5 × 10^6 cells mL^–1. Cells were incubated at 37 °C for one hour with shaking, and compound depletion was measured by LC-MS/MS at six time points (0.25, 5, 10, 20, 40, and 60 min).

[4] = system: IκBα degradation in PC-3M cells; assay: TNFα-stimulated IκBα degradation, Western blotting; type: cell-based; details: for effect on TNFα-stimulated IκBα degradation: PC-3M cells, 0.1–10 µM
Protocol: as §7, §8
as §9, with “s.e.m.” for “s.e.m. IC50 values were established by curve fitting using the Hill equation.”
Figure 14 Compound 5r [SU1261] inhibits LTα1β2-stimulated p100 phosphorylation (Ser866/870) but not TNFα-stimulated IkBα degradation, phosphorylation of p65 (Ser536), nor phosphorylation of p105 (Ser932) in PC-3M prostate cancer cells. […] (0.1–10 µM) for 1 h prior to treatment with LTα1β2 (15 ng/mL) for 4 h, and phospho-p100 (Ser866/870) in whole-cell extracts was assessed by Western blotting. […] (0.1–10 µM) for 1 h prior to treatment with TNFα (10 ng/mL) for 30 min, and IkBα degradation, phospho-p65 (Ser536), phospho-p105 (Ser932), and p65 expression in whole-cell extracts were assessed by Western blotting. […] Normalised data (n = 3) from semi-quantitative scanning densitometry were plotted relative to ‘agonist plus vehicle’ (LTα1β2 plus DMSO), and IC50 values were established by curve fitting using the Hill equation (see Figure S1D).

Sequence of Lyn(h) (P07948 whole entry): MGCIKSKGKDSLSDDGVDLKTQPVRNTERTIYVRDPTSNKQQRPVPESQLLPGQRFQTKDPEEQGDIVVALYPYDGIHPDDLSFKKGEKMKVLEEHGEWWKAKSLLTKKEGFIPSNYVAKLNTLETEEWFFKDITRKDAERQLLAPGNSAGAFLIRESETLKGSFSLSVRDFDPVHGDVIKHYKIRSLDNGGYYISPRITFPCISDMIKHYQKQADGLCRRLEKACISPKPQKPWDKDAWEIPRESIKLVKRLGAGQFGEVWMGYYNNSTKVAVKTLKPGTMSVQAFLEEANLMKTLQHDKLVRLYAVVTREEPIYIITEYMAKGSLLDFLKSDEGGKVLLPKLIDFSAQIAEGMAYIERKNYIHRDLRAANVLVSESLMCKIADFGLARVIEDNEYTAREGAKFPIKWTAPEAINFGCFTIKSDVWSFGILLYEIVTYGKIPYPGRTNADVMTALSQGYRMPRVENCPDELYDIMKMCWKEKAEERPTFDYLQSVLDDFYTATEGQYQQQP
Sequence of TAO3(h) (Q9H2K8 whole entry): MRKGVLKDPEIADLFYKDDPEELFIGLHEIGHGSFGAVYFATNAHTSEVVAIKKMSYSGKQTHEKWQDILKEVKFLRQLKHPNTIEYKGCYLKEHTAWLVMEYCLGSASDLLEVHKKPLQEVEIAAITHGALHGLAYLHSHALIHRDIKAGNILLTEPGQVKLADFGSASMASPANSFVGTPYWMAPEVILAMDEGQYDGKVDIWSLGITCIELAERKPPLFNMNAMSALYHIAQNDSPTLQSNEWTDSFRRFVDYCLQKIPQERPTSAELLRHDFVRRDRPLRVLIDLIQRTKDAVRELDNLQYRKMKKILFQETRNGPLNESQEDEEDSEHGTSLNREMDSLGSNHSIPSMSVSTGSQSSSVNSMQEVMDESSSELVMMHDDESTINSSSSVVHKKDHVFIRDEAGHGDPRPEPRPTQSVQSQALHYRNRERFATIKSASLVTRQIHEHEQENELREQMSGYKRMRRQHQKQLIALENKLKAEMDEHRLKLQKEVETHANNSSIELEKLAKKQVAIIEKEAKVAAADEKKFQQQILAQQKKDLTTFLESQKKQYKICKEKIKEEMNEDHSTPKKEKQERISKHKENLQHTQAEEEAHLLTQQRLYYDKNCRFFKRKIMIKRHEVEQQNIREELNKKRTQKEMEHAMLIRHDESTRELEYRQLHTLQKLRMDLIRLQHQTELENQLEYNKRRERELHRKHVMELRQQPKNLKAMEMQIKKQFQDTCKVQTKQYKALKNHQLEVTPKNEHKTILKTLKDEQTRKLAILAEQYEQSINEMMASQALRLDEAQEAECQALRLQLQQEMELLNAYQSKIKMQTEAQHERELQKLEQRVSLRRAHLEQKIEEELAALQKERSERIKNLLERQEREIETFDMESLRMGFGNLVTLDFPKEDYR
Sequence of EphB2(h) (P29323 19-1055): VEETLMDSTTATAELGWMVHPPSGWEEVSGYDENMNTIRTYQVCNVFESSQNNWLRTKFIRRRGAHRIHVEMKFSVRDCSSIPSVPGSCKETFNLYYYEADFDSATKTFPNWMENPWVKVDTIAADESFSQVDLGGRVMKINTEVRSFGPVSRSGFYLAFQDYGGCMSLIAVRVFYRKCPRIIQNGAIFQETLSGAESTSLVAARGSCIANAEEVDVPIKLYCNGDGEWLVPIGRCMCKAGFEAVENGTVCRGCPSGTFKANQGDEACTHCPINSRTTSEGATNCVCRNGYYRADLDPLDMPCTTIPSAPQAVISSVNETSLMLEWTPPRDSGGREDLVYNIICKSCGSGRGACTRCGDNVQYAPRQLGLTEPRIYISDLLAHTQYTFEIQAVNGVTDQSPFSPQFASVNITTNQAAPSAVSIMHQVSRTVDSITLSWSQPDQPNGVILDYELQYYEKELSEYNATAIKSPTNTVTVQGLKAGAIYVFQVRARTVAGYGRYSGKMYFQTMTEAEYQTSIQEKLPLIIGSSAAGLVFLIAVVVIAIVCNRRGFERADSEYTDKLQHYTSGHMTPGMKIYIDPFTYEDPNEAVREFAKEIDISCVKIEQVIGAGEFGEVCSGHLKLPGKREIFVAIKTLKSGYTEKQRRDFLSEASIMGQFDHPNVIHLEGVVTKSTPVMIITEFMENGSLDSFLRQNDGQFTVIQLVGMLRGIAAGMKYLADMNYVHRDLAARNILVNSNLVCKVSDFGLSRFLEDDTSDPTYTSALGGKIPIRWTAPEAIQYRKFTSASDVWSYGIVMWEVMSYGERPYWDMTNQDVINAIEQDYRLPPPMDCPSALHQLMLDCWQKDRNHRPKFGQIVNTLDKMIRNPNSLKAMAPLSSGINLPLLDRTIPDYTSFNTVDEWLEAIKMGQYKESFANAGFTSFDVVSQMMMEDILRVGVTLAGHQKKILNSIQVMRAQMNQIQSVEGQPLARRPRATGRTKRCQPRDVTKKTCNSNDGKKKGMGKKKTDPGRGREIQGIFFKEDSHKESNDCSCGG
Sequence of JNK2α2(h) (P45984 whole entry): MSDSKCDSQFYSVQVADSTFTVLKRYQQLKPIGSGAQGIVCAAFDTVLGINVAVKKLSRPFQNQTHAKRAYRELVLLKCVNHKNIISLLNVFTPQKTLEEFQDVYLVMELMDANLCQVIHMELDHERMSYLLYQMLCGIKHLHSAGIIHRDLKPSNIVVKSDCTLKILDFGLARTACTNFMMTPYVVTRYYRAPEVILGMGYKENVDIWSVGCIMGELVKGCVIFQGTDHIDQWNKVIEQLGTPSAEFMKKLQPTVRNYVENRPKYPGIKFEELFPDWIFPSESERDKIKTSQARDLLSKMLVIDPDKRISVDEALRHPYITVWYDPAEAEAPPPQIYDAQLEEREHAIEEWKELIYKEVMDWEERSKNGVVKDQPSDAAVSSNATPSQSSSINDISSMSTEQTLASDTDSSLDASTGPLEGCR

For `Nc1n[nH]c2ccc(-c3ccnc4[nH]c(-c5ccccc5)cc34)cc12` [Compound 4], the inhibition at 1 µM (TBK1(h)) was 81%, the inhibition at 1 µM (Lyn(h)) was 77% and the inhibition at 1 µM (EphB2(h)) was 12%. For the same compound, the inhibition at 1 µM (JNK2α2(h)) was 22%, the inhibition at 1 µM (TAO3(h)) was 36% and the “% inhibition MLCK(h)” value (MLCK(h)) was 0%. The “number of kinases inhibited by >80%” value (panel of 231 kinases) was 44 kinases.
With `Nc1n[nH]c2ccc(-c3ccnc4[nH]c(-c5cccc(OCc6ccccc6)c5)cc34)cc12` [Compound 5r [SU1261]] the “effect on TNFα-stimulated p105 (Ser932) phosphorylation” value [1] was “no significant concentration-dependent inhibition”, the “effect on TNFα-stimulated p65 (Ser536) phosphorylation” value [2] was “did not impact” and the solubility (Turbidimetric solubility) was < 1 µM. It also gave an inhibition at 1 µM (TBK1(h)) of 22%, an inhibition at 1 µM (Lyn(h)) of 31% and an inhibition at 1 µM (EphB2(h)) of -8%. For the same compound, the inhibition at 1 µM (JNK2α2(h)) was -6%, the inhibition at 1 µM (TAO3(h)) was 4% and the “% inhibition MLCK(h)” value (MLCK(h)) was -10%. The half-life at 1 µM [3] was 36 min, the “Mouse Hepatocyte Clearance” value [3] was 38 μL/min/10^6 Cells and the “number of kinases inhibited by >80%” value (panel of 231 kinases) was 10 kinases. For the same compound, the “effect on TNFα-stimulated IκBα degradation” value [4] was “did not impact”.
For `Nc1n[nH]c2ccc(-c3ccnc4[nH]c(-c5ccnc(OCc6ccccc6)c5)cc34)cc12` [Compound 6g [SU1349]], the “effect on TNFα-stimulated p105 (Ser932) phosphorylation” value [1] was “no impact”, the “effect on TNFα-stimulated p65 (Ser536) phosphorylation” value [2] was “no impact” and the solubility (Turbidimetric solubility) was 20 µM (≈ 8.65 µg/mL). For the same compound, the inhibition at 1 µM (TBK1(h)) was 2%, the half-life at 1 µM [3] was 51 min and the “Mouse Hepatocyte Clearance” value [3] was 27 μL/min/10^6 Cells. The “effect on TNFα-stimulated IκBα degradation” value [4] was “no impact” and the “impact on IKKβ-mediated canonical NF-κB signalling” value ([4]; prostate cancer cell line (PC-3M), at 10 μM) was “no detectable impact”.

Source: article PMC11314561, “Design and Synthesis of Novel Aminoindazole-pyrrolo[2,3-b]pyridine Inhibitors of IKKα That Selectively Perturb Cellular Non-Canonical NF-κB Signalling” (Molecules, 2024)
